According to publication PMC12040169 (PLOS Biology, 2025):

test: in vitro; details: human, hela cells, % viability

Which viability at 28.5 h, 10 µM does the source give for `O=C1Nc2cc(Cl)ccc2C(=O)N2CCN(C(=O)C3CCCCC3)C[C@H]12` [CBK289586] here?
The viability at 28.5 h, 10 µM was 87.1%.

Which viability at 28.5 h, 10 µM does the source give for `COCC(=O)N1CCN2C(=O)c3ccc(Cl)cc3NC(=O)[C@H]2C1` [CBK289588] here?
The viability at 28.5 h, 10 µM was 84.6%.

For `O=C1Nc2ccc(Br)cc2C(=O)N2CCN(C(=O)c3ccccc3)C[C@H]12` [CBK289589], which viability at 28.5 h, 10 µM is on record?
Its viability at 28.5 h, 10 µM is 121%.

With `O=C1Nc2ccc(-c3ccc(Cl)cc3)cc2C(=O)N2CCN(C(=O)c3cccnc3)C[C@H]12` [CBK289590] as the compound, how does the viability at 28.5 h, 10 µM read?
The viability at 28.5 h, 10 µM was 107%.

Which viability at 28.5 h, 10 µM does the source give for `O=C1Nc2ccc(-c3ccccc3F)cc2C(=O)N2CCN(C(=O)c3cccnc3)C[C@H]12` [CBK289591] here?
The viability at 28.5 h, 10 µM was 111%.

With `CC(C)NC(=O)N1CCN2C(=O)c3cc(-c4ccc(Cl)cc4)ccc3NC(=O)[C@H]2C1` [CBK289596] as the compound, how does the viability at 28.5 h, 10 µM read?
The viability at 28.5 h, 10 µM was 79.5%.

Which viability at 28.5 h, 10 µM does the source give for `COc1ccc(C[C@@H]2NC(=O)[C@@H]3CN(C(=O)c4ccc(OC)cc4)CCN3C2=O)cc1` [CBK289598] here?
Its viability at 28.5 h, 10 µM is 94.1%.

Which viability at 28.5 h, 10 µM does the source give for `CN(C)c1ccc(C(=O)N2CCN3C(=O)[C@H](Cc4ccc(F)cc4)NC(=O)[C@H]3C2)cc1` [CBK289601] here?
Its viability at 28.5 h, 10 µM is 109%.

Which viability at 28.5 h, 10 µM does the source give for `O=C1N[C@@H](Cc2ccc(F)cc2)C(=O)N2CCN(C(=O)N3CCOCC3)C[C@H]12` [CBK289603] here?
The viability at 28.5 h, 10 µM was 109%.

For `COCC(=O)N1CCN2C(=O)[C@@H]3C[C@@H](OCc4ccc(F)cc4)CN3C(=O)[C@@H]2C1` [CBK289605], which viability at 28.5 h, 10 µM is on record?
Its viability at 28.5 h, 10 µM is 99.1%.

With `COC(=O)[C@@H]1CN(C(=O)Nc2ccccc2)CCN1C(C)=O` [CBK289606] as the compound, how does the viability at 28.5 h, 10 µM read?
Its viability at 28.5 h, 10 µM is 88%.

With `COC(=O)[C@@H]1CN(C(=O)Nc2ccccc2)CCN1C(=O)C1CCCCC1` [CBK289607] as the compound, how does the viability at 28.5 h, 10 µM read?
Its viability at 28.5 h, 10 µM is 91%.

For `COCC(=O)N1CCN(C(=O)c2cccc(F)c2)C[C@H]1C(=O)OC` [CBK289608], which viability at 28.5 h, 10 µM is on record?
Its viability at 28.5 h, 10 µM is 89.4%.

Which viability at 28.5 h, 10 µM does the source give for `CC(C)N1C(=O)[C@@H]2CN(C(=O)C3CCCC3)CCN2C1=O` [CBK289612] here?
Its viability at 28.5 h, 10 µM is 88.8%.

With `COCC(=O)N1CCN(C(=O)N2CCOCC2)C[C@@H]1C(=O)OC` [CBK289613] as the compound, how does the viability at 28.5 h, 10 µM read?
Its viability at 28.5 h, 10 µM is 109%.

For `COCC(=O)N1CCN(C(=O)c2cccs2)[C@@H](C(=O)OC)C1` [CBK289614], which viability at 28.5 h, 10 µM is on record?
Its viability at 28.5 h, 10 µM is 111%.

Which viability at 28.5 h, 10 µM does the source give for `COc1cccc(NC(=O)N2CCN3C(=O)[C@H](CC4CCCCC4)NC(=O)[C@H]3C2)c1` [CBK289615] here?
Its viability at 28.5 h, 10 µM is 117%.

With `COc1ccc(C[C@@H]2NC(=O)[C@H]3CN(C(=O)c4cccn4C)CCN3C2=O)cc1` [CBK289616] as the compound, how does the viability at 28.5 h, 10 µM read?
The viability at 28.5 h, 10 µM was 93.4%.

Which viability at 28.5 h, 10 µM does the source give for `COC(=O)[C@@H](C)NC(=O)[C@@H]1CN(C(=O)c2cccc(F)c2)CCN1C(C)=O` [CBK289620] here?
The viability at 28.5 h, 10 µM was 91.3%.

With `COC(=O)[C@@H](C)NC(=O)[C@@H]1CN(C(=O)c2cccc(F)c2)CCN1C(=O)C1CCCCC1` [CBK289621] as the compound, how does the viability at 28.5 h, 10 µM read?
The viability at 28.5 h, 10 µM was 87.4%.

With `COC(=O)[C@@H](C)NC(=O)[C@@H]1CN(S(C)(=O)=O)CCN1C(=O)c1cccs1` [CBK289623] as the compound, how does the viability at 28.5 h, 10 µM read?
Its viability at 28.5 h, 10 µM is 89.6%.

With `COC(=O)[C@@H](C)NC(=O)[C@H]1CN(C(=O)c2cccnc2)CCN1C(=O)NC1CCCCC1` [CBK289632] as the compound, how does the viability at 28.5 h, 10 µM read?
Its viability at 28.5 h, 10 µM is 86%.

Which viability at 28.5 h, 10 µM does the source give for `CC(=O)N1CCN(C(=O)NC(C)C)C[C@@H]1C(=O)N[C@@H](CC1CCCCC1)C(N)=O` [CBK289633] here?
Its viability at 28.5 h, 10 µM is 91.8%.

With `O=C1NCCC[C@@H]1NC(=O)[C@H]1CN(C(=O)c2ccccc2)CCN1C(=O)c1cccnc1` [CBK289634] as the compound, how does the viability at 28.5 h, 10 µM read?
The viability at 28.5 h, 10 µM was 108%.

With `C[C@@H](c1ccccc1)N1C(=O)[C@@H]2CN(S(=O)(=O)c3cccs3)CCN2C1=O` [CBK289635] as the compound, how does the viability at 28.5 h, 10 µM read?
Its viability at 28.5 h, 10 µM is 91.3%.

With `C[C@@H](c1ccccc1)N1C(=O)[C@@H]2CN(C(=O)COCC(=O)O)CCN2C1=O` [CBK289636] as the compound, how does the viability at 28.5 h, 10 µM read?
Its viability at 28.5 h, 10 µM is 94.3%.

With `C[C@H](c1ccccc1)N1C(=O)[C@@H]2CN(C(=O)CC(C)(C)C)CCN2C1=O` [CBK289638] as the compound, how does the viability at 28.5 h, 10 µM read?
The viability at 28.5 h, 10 µM was 89.5%.

With `CC(C)(C)c1cc(CC2(NCc3ccco3)COC2)no1` [CBK289642] as the compound, how does the viability at 28.5 h, 10 µM read?
Its viability at 28.5 h, 10 µM is 108%.

With `c1ccc(CNC2(Cc3cc(-c4ccccn4)on3)COC2)cc1` [CBK289643] as the compound, how does the viability at 28.5 h, 10 µM read?
Its viability at 28.5 h, 10 µM is 87.9%.

Which viability at 28.5 h, 10 µM does the source give for `Oc1cccc(-c2cc(CC3(NCc4ccc(F)cc4)COC3)no2)c1` [CBK289646] here?
The viability at 28.5 h, 10 µM was 108%.

For `N#Cc1ccc(CNC2(Cc3cc(CO)on3)COC2)cc1` [CBK289647], which viability at 28.5 h, 10 µM is on record?
The viability at 28.5 h, 10 µM was 104%.

With `O=C(N[C@@H](Cn1cc(Cl)c(=O)[nH]c1=O)C(=O)O)C1CCCCC1` [CBK289648] as the compound, how does the viability at 28.5 h, 10 µM read?
Its viability at 28.5 h, 10 µM is 98.7%.

With `O=C(N[C@@H](Cn1cc(Cl)c(=O)[nH]c1=O)C(=O)O)c1cccc(F)c1` [CBK289650] as the compound, how does the viability at 28.5 h, 10 µM read?
The viability at 28.5 h, 10 µM was 118%.

For `O=C(O)COCC(=O)N1C[C@@H]2OCC(=O)N(Cc3ccccc3)[C@@H]2C1` [CBK289652], which viability at 28.5 h, 10 µM is on record?
The viability at 28.5 h, 10 µM was 101%.

With `Oc1ccccc1CNC1(Cc2cc(-c3ccc(F)cc3)on2)COC1` [CBK289655] as the compound, how does the viability at 28.5 h, 10 µM read?
The viability at 28.5 h, 10 µM was 95.8%.

For `CC(C)(O)c1cc(CC2(NCC3CCCCC3)COC2)no1` [CBK289656], which viability at 28.5 h, 10 µM is on record?
Its viability at 28.5 h, 10 µM is 89.7%.

Which viability at 28.5 h, 10 µM does the source give for `O=C(N[C@@H](Cn1cc(Cl)c(=O)[nH]c1=O)C(=O)O)C1CCCC1` [CBK289658] here?
The viability at 28.5 h, 10 µM was 113%.

Which viability at 28.5 h, 10 µM does the source give for `O=C(N[C@@H](Cn1cc(F)c(=O)[nH]c1=O)C(=O)O)C1CCCC1` [CBK289660] here?
The viability at 28.5 h, 10 µM was 109%.

With `O=C(N[C@@H](Cn1cc(F)c(=O)[nH]c1=O)C(=O)O)C1CCCCC1` [CBK289661] as the compound, how does the viability at 28.5 h, 10 µM read?
The viability at 28.5 h, 10 µM was 89.2%.

For `CCc1cn(C[C@H](NC(=O)C2CCC2)C(=O)O)c(=O)[nH]c1=O` [CBK289663], which viability at 28.5 h, 10 µM is on record?
Its viability at 28.5 h, 10 µM is 97.1%.

For `COc1ccnc(N2C[C@@H]3OCC(=O)N(Cc4ccccc4)[C@@H]3C2)n1` [CBK289666], which viability at 28.5 h, 10 µM is on record?
The viability at 28.5 h, 10 µM was 91%.

Which viability at 28.5 h, 10 µM does the source give for `CC(=O)N1C[C@@H]2OCC(=O)N(Cc3nccn3C)[C@@H]2C1` [CBK289668] here?
Its viability at 28.5 h, 10 µM is 90.6%.

Which viability at 28.5 h, 10 µM does the source give for `Cc1cc(C(=O)Nc2ccc([C@@H](O)[C@H]3COCC(=O)N3Cc3ccccc3)cc2)n(C)n1` [CBK289669] here?
The viability at 28.5 h, 10 µM was 89%.

Which viability at 28.5 h, 10 µM does the source give for `CCNC1(Cc2cc(C(=O)N3CCCCC3)on2)COC1` [CBK289671] here?
Its viability at 28.5 h, 10 µM is 84.2%.

Which viability at 28.5 h, 10 µM does the source give for `N#Cc1ccc(CNC2(Cc3cc(C(=O)N4CCCCC4)on3)COC2)cc1` [CBK289672] here?
Its viability at 28.5 h, 10 µM is 87%.

Which viability at 28.5 h, 10 µM does the source give for `COc1ccc(CN2C(=O)COC[C@@H]2[C@H](O)c2ccc(NC(C)=O)cc2)cc1` [CBK289674] here?
The viability at 28.5 h, 10 µM was 95.6%.

Which viability at 28.5 h, 10 µM does the source give for `COc1ccc(CN2C(=O)COC[C@@H]2[C@H](O)c2ccc(NC(=O)c3ccc(OC)cc3)cc2)cc1` [CBK289675] here?
The viability at 28.5 h, 10 µM was 95.9%.

Which viability at 28.5 h, 10 µM does the source give for `CCN1C(=O)COC[C@@H]1[C@H](O)c1ccc(NC(=O)Cc2ccc(OC)cc2)cc1` [CBK289676] here?
The viability at 28.5 h, 10 µM was 90.2%.

With `CCC(CC)C(=O)Nc1ccc([C@@H](O)[C@H]2COCC(=O)N2Cc2ccc(OC)cc2)cc1` [CBK289677] as the compound, how does the viability at 28.5 h, 10 µM read?
Its viability at 28.5 h, 10 µM is 102%.

Which viability at 28.5 h, 10 µM does the source give for `CC(=O)Nc1ccc([C@@H](O)[C@H]2COCC(=O)N2Cc2ccc(C(F)(F)F)cc2)cc1` [CBK289678] here?
The viability at 28.5 h, 10 µM was 92.7%.

With `O=C(c1ccno1)N1C[C@@H]2OCC(=O)N(CC3CC3)[C@@H]2C1` [CBK289680] as the compound, how does the viability at 28.5 h, 10 µM read?
The viability at 28.5 h, 10 µM was 83.5%.

Which viability at 28.5 h, 10 µM does the source give for `O=C(c1cnccn1)N1C[C@@H]2OCC(=O)N(CC3CC3)[C@@H]2C1` [CBK289681] here?
Its viability at 28.5 h, 10 µM is 91.3%.

For `O=C(Nc1ccccc1)N1C[C@@H]2OCC(=O)N(Cc3ccc(F)cc3)[C@@H]2C1` [CBK289683], which viability at 28.5 h, 10 µM is on record?
Its viability at 28.5 h, 10 µM is 82%.

With `CCC(CC)C(=O)Nc1ccc([C@@H](O)[C@H]2COCC(=O)N2CC)cc1` [CBK289684] as the compound, how does the viability at 28.5 h, 10 µM read?
The viability at 28.5 h, 10 µM was 107%.

Which viability at 28.5 h, 10 µM does the source give for `CCN1C(=O)COC[C@@H]1[C@H](O)c1ccc(NC(=O)COc2ccccc2)cc1` [CBK289685] here?
Its viability at 28.5 h, 10 µM is 96.6%.

Which viability at 28.5 h, 10 µM does the source give for `CCN1C(=O)COC[C@@H]1[C@H](O)c1ccc(NC(=O)c2ccc(C#N)cc2)cc1` [CBK289689] here?
The viability at 28.5 h, 10 µM was 91.6%.

With `O=C(c1cccnc1)N1C[C@@H]2OCC(=O)N(Cc3ccc(F)cc3)[C@@H]2C1` [CBK289691] as the compound, how does the viability at 28.5 h, 10 µM read?
The viability at 28.5 h, 10 µM was 96.1%.
